From ChEMBL document CHEMBL1146082, “Development of a structural model for NF-kappaB inhibition of sesquiterpene lactones using self-organizing neural networks” (J Med Chem, 2006) come the findings set out here.

Chain of Transcription factor p65 (Homo sapiens) (Q04206 whole entry): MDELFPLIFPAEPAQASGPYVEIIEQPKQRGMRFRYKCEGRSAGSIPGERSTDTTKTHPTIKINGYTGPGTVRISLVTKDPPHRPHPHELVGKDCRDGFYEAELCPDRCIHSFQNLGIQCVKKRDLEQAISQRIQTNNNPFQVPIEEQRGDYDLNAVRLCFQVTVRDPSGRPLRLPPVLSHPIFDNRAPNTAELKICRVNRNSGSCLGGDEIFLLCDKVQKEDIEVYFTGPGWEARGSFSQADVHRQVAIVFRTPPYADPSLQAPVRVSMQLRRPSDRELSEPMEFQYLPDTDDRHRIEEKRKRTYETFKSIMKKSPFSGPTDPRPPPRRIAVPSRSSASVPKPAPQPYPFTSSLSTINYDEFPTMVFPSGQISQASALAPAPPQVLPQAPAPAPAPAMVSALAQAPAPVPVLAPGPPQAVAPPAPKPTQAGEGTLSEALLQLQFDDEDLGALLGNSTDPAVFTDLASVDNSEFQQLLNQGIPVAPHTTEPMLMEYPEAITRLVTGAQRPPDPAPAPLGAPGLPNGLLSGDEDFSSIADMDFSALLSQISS

The assay concerns the target Transcription factor p65 (Homo sapiens) (UniProt Q04206). The experiment in a line: Inhibition of NF-kappaB DNA binding by EMSA. A general note: A gel shift assay detects complexes by their altered migration in electrophoresis.
`C=C(C)C(=O)O[C@H]1C/C(C)=C\[C@@]2(OC)C=C(C)[C@H](O2)[C@H]2OC(=O)C(=C)[C@@H]21` had an IC100 of 10 µM.

Regarding `C=C(C)C(=O)O[C@@H]1[C@@H]2C(=C)C(=O)O[C@@H]2C[C@@H](C)[C@@H]2C=CC(=O)[C@@]12C`, the IC100 was 5 µM.

The compound `C=C(C)C(=O)O[C@@H]1C[C@@]2(C)OC(=CC2=O)/C(C)=C\[C@H]2OC(=O)C(=C)[C@@H]21` displayed an IC100 of 10 µM.

The compound `C=C(C)C(=O)O[C@H]1[C@H]2C(=C)C(=O)O[C@@H]2[C@@H](O)[C@@]2(CC/C=C(/C=O)[C@@H]1OC(C)=O)CO2` registered an IC100 of 5 µM.

The compound `C=C(C)C(=O)O[C@H]1/C(C=O)=C\CC/C(C)=C/[C@H]2OC(=O)C(=C)[C@@H]2[C@@H]1O` yielded an IC100 of 5 µM.

The compound `C=C(CO)C(=O)OC/C1=C\C[C@@H]2C(=C)C(=O)O[C@H]2C/C(COC(C)=O)=C/CC1` returned an IC100 of 50 µM.

As to `C=C(C)C(=O)O[C@H]1C[C@@]2(C)OC(=CC2=O)/C(CO)=C\[C@H]2OC(=O)C(=C)[C@H]12`, the IC100 was 20 µM.

The compound `C=C1C(=O)O[C@@H]2[C@H]3C(C)=CC[C@H]3[C@](C)(O)C[C@H](OC(C)=O)[C@@H]12` returned an IC100 of 20 µM.

Consider `C=C1C(=O)O[C@@H]2[C@H]1[C@@H](OC(=O)[C@]1(C)O[C@@H]1C)C(=O)[C@@]1(C)C=CC[C@@](C)(O)[C@H]21`, for which the IC100 stood at 10 µM.

As to `C=C1C(=O)O[C@@H]2C[C@H](C)[C@@H]3CC(=O)C(C)=C3C[C@H]12`, the IC100 worked out at 50 µM.

`C=C1C(=O)O[C@@H]2[C@H]3C(CO)=CC(=O)C3=C(C)CC[C@@H]12`: the IC100 was 50 µM.

Compound `C=C(C)C(=O)O[C@@H]1/C=C(\C=O)[C@H](OC)CCC(=C)[C@H](O)[C@H]2OC(=O)C(=C)[C@@H]21` displayed an IC100 of 10 µM.

`C=C(C)C(=O)O[C@H]1[C@H]2C(=C)C(=O)O[C@@H]2/C=C(\C)CC/C=C(/C=O)[C@@H]1O`: the IC100 stood at 10 µM.

`C=C1C(=O)O[C@H]2C/C(CO)=C/CC/C(COC(=O)C(C)CC)=C/C[C@H]12` (stereo partly drawn) displayed an IC100 of 50 µM.

`C=C1[C@@H]2[C@H]3OC(=O)C(=C)[C@@H]3CCC(=C)[C@@H]2C[C@@H]1OC(C)=O`: the IC100 is 100 µM.

`C=C1C(=O)O[C@@H]2C[C@@]3(C)[C@H](OC(C)=O)CC[C@](O)(COC(=O)C(C)C)[C@@H]3C[C@H]12` gave an IC100 of 100 µM.

Take `C=C1CCC=C(C)[C@@]2(O)[C@H](OC(=O)[C@]3(C)O[C@@H]3C)[C@@H]3[C@@H](OC(=O)[C@@H]3C)[C@H]12`: the IC100 came to 200 µM.

In the case of `C[C@@H]1C[C@H]2OC(=O)[C@@H](C)[C@H]2[C@H](O)[C@]2(C)C(=O)C=C[C@@H]12`, the IC100 was 200 µM.

`C=C1C(=O)O[C@H]2[C@H]1[C@H](OC(=O)[C@@]1(C)O[C@H]1C)[C@@H](OC(C)=O)/C(C(=O)OC)=C\CC[C@@]1(C)O[C@H]21`: the IC100 amounted to 10 µM.

As to `C=C1C(=O)O[C@@H]2C3O[C@]3(C)CC/C=C(\C)CC[C@@H]12` (stereo partly drawn), the IC100 was determined as 20 µM.

The compound `C=C1C(=O)O[C@@H]2[C@@H]3[C@@](C)(CC[C@@H]12)[C@@H](O)C[C@H]1O[C@@]31C` registered an IC100 of 200 µM.

With `C=C1C(=O)O[C@@H]2C[C@@H](C)[C@@H]3CCC(=O)[C@@]3(C)C[C@H]12`, the IC100 amounted to 50 µM.

`C=C1C(=O)C=C2[C@H]1C[C@@H]1C(=C)C(=O)O[C@H]1C[C@@H]2C` had an IC100 of 5 µM.

As for `C=C1C(=O)O[C@@H]2C[C@@]3(C)CC(=O)C(OC(C)=O)=C(C)C3C[C@H]12` (stereo partly drawn), the IC100 was 100 µM.

As for `C=C1[C@H](O)C[C@@H](O)[C@]2(C)CC[C@H]3C(=C)C(=O)O[C@@H]3[C@@H]12`, the IC100 amounted to 200 µM.

Consider `C=C(C)C(=O)O[C@H]1C[C@@]2(C)OC(=CC2=O)C(=C)[C@@H](Cl)[C@H]2OC(=O)C(=C)[C@@H]21`, for which the IC100 came to 5 µM.

In turn, `C=C1C(=O)O[C@@H]2/C=C(\C)CC/C=C(\C)CC[C@@H]12` came in with an IC100 of 50 µM.

Compound `C=C1C(=O)O[C@@H]2[C@H]3C(C)=CC[C@H]3[C@](C)(O)C[C@H](O)[C@@H]12` registered an IC100 of 100 µM.

`C=C(C)C(=O)O[C@H]1[C@H]2C(=C)C(=O)O[C@@H]2[C@@H]2O[C@]2(C)CC/C=C(/C=O)[C@@H]1O`: the IC100 turned out to be 10 µM.

As for `CC(=O)O[C@H]1[C@@H]2[C@H](C)C(=O)O[C@@H]2C[C@@H](C)[C@@H]2C=CC(=O)[C@]21C`, the IC100 turned out to be 200 µM.

On to `C=C1C(=O)O[C@@H]2/C=C(\COC(=O)C(C)C)CC/C=C(\CO)[C@H](O)C[C@@H]12`, for which the IC100 turned out to be 100 µM.

`C=C(CO)C(=O)OC/C1=C\C[C@@H]2C(=C)C(=O)O[C@H]2C/C(CO)=C/CC1` came in with an IC100 of 20 µM.

Turning to `C=C1C(=O)C[C@H]2C(=C)C(=O)O[C@@H]2/C=C(\COC(=O)C(C)C)CC[C@@H]1OC`, the IC100 stood at 25 µM.

Compound `CC[C@@H](C)[C@@]1(O)O[C@H]2C[C@@]3(C)OC(=CC3=O)/C(COC(C)=O)=C\[C@H]3OC(=O)[C@@]1(C)C23` (stereo partly drawn) returned an IC100 of 5 µM.

In turn, `C=C1C(=O)O[C@@H]2/C=C(\C)[C@H](OC(C)=O)C/C=C(/C)CC[C@@H]12` yielded an IC100 of 50 µM.

`C=C1C(=O)O[C@H]2[C@H]1CCC(C)=C1C(=O)[C@H]3O[C@@]3(C)[C@@H]12` came in with an IC100 of 5 µM.

As for `C=C1C(=O)O[C@@H]2/C=C(\COC(=O)C(C)C)CC/C=C(\CO)C(=O)C[C@@H]12`, the IC100 came to 12.5 µM.

In turn, `C=C1C(=O)O[C@]23C[C@H]1CCC(COC(C)=O)=C2C(=O)C=C3C` yielded an IC100 of 100 µM.

`C=C(C)C(=O)O[C@@H]1CC(C)=C2C(=O)C=C(C)[C@@H]2[C@H]2OC(=O)C(=C)[C@@H]21`: the IC100 amounted to 10 µM.

Regarding `C=C1C(=O)O[C@@H]2C3=C(C(=O)C[C@@H]3C)[C@@H](C)CC[C@@H]12`, the IC100 amounted to 20 µM.

Compound `C[C@H]1C(=O)O[C@H]2C/C(CO)=C/CC/C(CO)=C/C[C@@H]21` registered an IC100 of 300 µM.

`C=C1C(=O)O[C@@H]2C[C@H](C)C3=C(C[C@H]12)[C@@H](C)CC3=O` returned an IC100 of 20 µM.

The compound `C=C1C(=O)O[C@H]2/C=C(\C)[C@@H](O)CC/C(C)=C/[C@@H](O)[C@H]12` showed an IC100 of 200 µM.

Consider `C=C(C)C(=O)O[C@H]1[C@H]2C(=C)C(=O)O[C@@H]2[C@@H](O)C(=C)CC/C=C(/C=O)[C@@H]1OC`, for which the IC100 is 50 µM.

On to `C=C1C(=O)O[C@@H]2C[C@@]3(C)[C@H](O)CC=C(COC(=O)C(C)C)[C@@H]3C[C@H]12`, for which the IC100 is 50 µM.

As to `C/C=C(\C)C(=O)O[C@H]1[C@@H]2[C@H](C)C(=O)O[C@@H]2C[C@@H](C)[C@@H]2C=CC(=O)[C@]21C`, the IC100 amounted to 100 µM.

With `C=C(C)C(=O)O[C@@H]1/C=C(/C=O)CCCC(=C)[C@H](O)[C@H]2OC(=O)C(=C)[C@@H]21`, the IC100 is 5 µM.

As for `C=C1C(=O)O[C@@H]2/C=C(/CO)C3=CC(=O)[C@@](C)(C[C@H](OC(=O)/C(C)=C\C)[C@@H]12)O3`, the IC100 worked out at 5 µM.

The compound `C=C1C(=O)O[C@@H]2C[C@@H](C)[C@@H]3C=CC(=O)[C@@]3(C)[C@@H](O)[C@H]12` gave an IC100 of 10 µM.

As to `C=C1C(=O)O[C@H]2C[C@]3(C)O[C@@H]3C[C@@H](OC(C)=O)C3=C[C@@H](OC3=O)[C@H]12`, the IC100 amounted to 10 µM.

With `C=C(C)C(=O)O[C@H]1C/C(C)=C/C(=O)/C=C(/C)[C@H](O)[C@H]2OC(=O)C(=C)[C@@H]21`, the IC100 amounted to 10 µM.

`C=C1C(=O)O[C@H]2CC(=C)[C@H](O)CC/C(C)=C/[C@@H](O)[C@H]12` had an IC100 of 50 µM.

For `C=C1C(=O)O[C@H]2/C=C(\C)CC/C=C(\C)[C@@H](OC(=O)/C(C)=C/C)[C@H](O)[C@@H]12`, the IC100 is 100 µM.

Compound `C=C1C(=O)O[C@@H]2C[C@@H](C)[C@@H]3[C@@H](OC(C)=O)C[C@@H](O)[C@@]3(C)[C@@H](O)[C@H]12` returned an IC100 of 200 µM.

The compound `C=C1C(=O)O[C@@H]2C[C@@H](C)[C@@H]3C=CC(=O)[C@@]3(C)[C@H](OC(=O)C(C)CC)[C@H]12` (stereo partly drawn) showed an IC100 of 10 µM.

As for `C=C1C(=O)O[C@H]2C[C@@H](C)[C@@H]3C=CC(=O)[C@@]3(C)[C@H](O)[C@H]12`, the IC100 turned out to be 20 µM.

For the compound `C=C1C(=O)O[C@H]2[C@H]1[C@@H](OC(=O)/C(C)=C/C)C/C(C)=C/C(=O)/C=C(/C)[C@@H]2O`, the IC100 came to 10 µM.

`C=C1C(=O)O[C@@H]2/C=C(/C)[C@]3(O)O[C@](C)(C[C@@H](OC(=O)C(C)C)[C@@H]12)C(=O)[C@@H]3OC` registered an IC100 of 200 µM.

`C=C(C)C(=O)O[C@H]1[C@H]2C(=C)C(=O)O[C@@H]2[C@@H](O)C(=C)CC/C=C(/C=O)[C@@H]1OC(C)=O`: the IC100 was 10 µM.

For `C=C1C(=O)O[C@H]2C/C(CO)=C/CC/C(COC(=O)C(C)CO)=C/C[C@H]12` (stereo partly drawn), the IC100 worked out at 100 µM.

In turn, `C=C1C(=O)O[C@@H]2C[C@@]3(C)[C@H](O)CC[C@](O)(COC(=O)C(C)C)[C@@H]3C[C@H]12` showed an IC100 of 200 µM.

On to `C=C1C(=O)O[C@@H]2C[C@H](C)C3=CC(=O)[C@H](C)[C@@H]3C[C@H]12`, for which the IC100 was determined as 50 µM.

`C=C1C(=O)O[C@H]2C/C(CO)=C/CC/C(COC(=O)C(C)(C)O)=C/C[C@H]12`: the IC100 was 50 µM.

The compound `C=C1C(=O)O[C@@H]2/C=C(/CO)C3=CC(=O)[C@@](C)(C[C@@H](OC(=O)/C(C)=C/C)[C@@H]12)O3` registered an IC100 of 5 µM.

In turn, `C=C1C(=O)O[C@H]2C[C@H](C)C3=CC(=O)[C@H](C)C3C[C@H]12` (stereo partly drawn) had an IC100 of 20 µM.

As for `C=C1C(=O)O[C@@H]2[C@H]3C(C)=C(Cl)C(=O)C3=C(C)CC[C@@H]12`, the IC100 was determined as 20 µM.

`C=C1C(=O)O[C@H]2/C=C(\C)CC/C=C(/C)C(=O)[C@H](OC(=O)[C@@]3(C)O[C@H]3C)[C@@H]12` displayed an IC100 of 50 µM.

Compound `CC[C@@H](C)[C@@]1(O)O[C@H]2C[C@@]3(C)OC(=CC3=O)/C(CO)=C\[C@H]3OC(=O)[C@@]1(C)C23` (stereo partly drawn) returned an IC100 of 100 µM.

`C=C1C(=O)C[C@H]2C(=C)C(=O)O[C@@H]2/C=C(\COC(=O)C(C)C)CC[C@H]1OC` gave an IC100 of 25 µM.

Compound `C=C(C)C(=O)O[C@@H]1/C=C(\C=O)CCCC(=C)[C@H](O)[C@H]2OC(=O)C(=C)[C@@H]21` registered an IC100 of 10 µM.

For `C=C(C)C(=O)O[C@@H]1/C=C(/C=O)CCC[C@@]2(CO2)[C@H](O)[C@H]2OC(=O)C(=C)[C@@H]21`, the IC100 was found to be 5 µM.

Turning to `C=C1C(=O)O[C@@H]2C[C@@]3(C)[C@H](O)CC[C@@](O)(COC(=O)C(C)C)[C@@H]3C[C@H]12`, the IC100 was determined as 200 µM.

Regarding `C=C(C)C(=O)O[C@H]1[C@H]2C(=C)C(=O)O[C@@H]2/C=C(\COC(C)=O)CC/C=C(/C=O)[C@@H]1O`, the IC100 was determined as 5 µM.
